Values after ≈ are worked out from the molar mass of the structure shown.
Tests used:
[1] = test system: P. Falciparum Pf3D7A; experiment: P. falciparum growth inhibition assay ([3H]hypoxanthine incorporation); format: cell-based; settings: Plasmodium falciparum, 48 h, read-out: average Pf IC50
Procedure: P. falciparum Growth Inhibition Assay. The sensitivity of P. falciparum infected erythrocytes to the compound is determined in triplicate using the [^3H]hypoxanthine incorporation method with an inoculum of 0.5% parasitemia (ring stage) and 2% hematocrit. The parasites were grown in RPMI 1640 and supplemented with […] (or 10% serum). Plates are incubated at 37° C., 5% CO2, 5% O2, 90% N2. After 24 h of incubation, [^3H]hypoxanthine is added and plates are incubated for another 24 h. After that period, plates are harvested on a glass fiber filter using a TOMTEC Cell harvester 96. Filters are dried and melt on scintillator sheets and the bound radioactivity is quantified by use of a Wallac Microbeta Trilux (Model 1450 LS-Perkin Elmer). IC50s are determined using Grafit 5 program (Grafit program; Erithacus Software, Horley, Surrey, United Kingdom).

[2] = test system: Plasmodium falciparum Pf3D7^0087/N9; experiment: P. falciparum in vivo efficacy assay (mouse model); design: species or system NODscidIL2Rγ^null mice engrafted with human erythrocytes; settings: interval of confidence 95%
Procedure: P. falciparum In Vivo Efficacy Assay.
Antimalarial in vivo efficacy was determined using the P. falciparum mouse model following the procedure described in: Jimenez-Diaz, M. B., Mulet, T., Viera, S., Gómez, V., Garuti, H., Ibañez, J., Alvarez-Doval, A., Shlutz, D. L., Martinez, A., Improved Murine Model Of Malaria Using Plasmodium falciparum (Competent Strains and Non-Myelodepleted NOD-scid IL2R_null Mice Engrafted with Human Erythrocytes) Antimicrob. Agents Chemother 2009, 53 (10), 4533-4536.
The goal of this study is to assess the therapeutic efficacy of Example 1 against Plasmodium falciparum Pf3D7^0087/N9 growing in peripheral blood of NODscidIL2Rγ^null mice engrafted with human erythrocytes. The levels of Example 1 are measured in serial peripheral blood samples obtained from each mouse of the efficacy experiment during the first 23 hrs after the first dose. The area under the curve of levels of compound is used to estimate the exposure in blood during the first 23 hours after the first administration (AUC0-23h).
The effect of Example 1 on P. Falciparum Pf3D7^0087/N9 was assessed by microscopy and flow cytometry.

[3] = Solubility assessment in FaSSIF (equilibrium solubility); format: physicochemical; settings: thermodynamic from solid, 4 hr at room temperature, LC-MS
Procedure: Solubility Assessment in FaSSIF
Organic solvents of HPLC grade were used. Ultra pure water (Milli-Q grade) was used. Buffers were prepared with ultra pure water and filtered using 0.45μ nylon filters.
Determination of Equilibrium Solubility (Assuming Chemical Stability in the Desired Solvent is not a Problem).
• a) 1 mg of solid compound was weighted in one 4 mL glass vial and 1 mL of FaSSIF was added. All these samples were prepared by duplicate. • b) The samples were stirred (roller mixer) for 4 hr at room temperature. If required, additional solid compound (0.1 mg) was added to maintain excess of it (saturated solutions). • c) After 4 hours, the samples were centrifuged (10000 rpm, 10 min.) and the supernatants were transfer to an HPLC vial and analysed by LC-MS (previous dilution with mobile phase when needed). • d) The pH of the final solution in each sample was measured with a pH-meter (WTW pH330i and a pH-electrode Sentix 41). LC-MS Assay for Analytical Quantification
All supernatants were analysed by LC-MS. Quantification of those samples was carried out against calibration curves obtained from 1 mg/mL DMSO (Aldrich cat. ref.: 27685-5) stock solutions, by dilution with the mobile phase used in the chromatography. Depending on the solubility range, U.V. (1 μg/mL to 100 μg/mL) or MS (1 μg/mL to 1 ng/mL) detector were used in the quantification. […]

Cc1cncc2[nH]c(=O)n([C@H](C(=O)Nc3ccnc(F)c3)C(C)C)c(=O)c12 [Example 1, (S)—N-(2-fluoropyridin-4-yl)-3-methyl-2-(5-methyl-2,4-dioxo-1,2-dihydropyrido[3,4-d]pyrimidin-3(4H)-yl)butanamide]
IC50 [1]: 32 nM | mean ED90 ([2]; P. falciparum Pf3D7^0087/N9 in humanised NODscidIL2Rγnull mice): 0.53 mg/kg | mean AUCED90 ([2]; blood exposure at ED90 (AUC0-23h after first dose), P. falciparum mouse model): 0.18 μg·h·mL-1·day-1 | solubility at 4 h [3]: 426 µg/mL (≈ 1150 µM)
